Patent US20050113283A1, “Methods of treating conditions associated with an EDG-4 receptor” (priority 2002, published 2005)
Entries after “also recorded” stand apart in the source; their conditions may differ.

Columns and labels:
Format in all cases: cell-based
[1] = target: T1, human Edg-4 receptor (Homo sapiens, UniProt Q9HBW0); experiment: Calcium mobilization assay (FLIPR), HTC rat hepatoma cells transfected with human Edg-4; conditions: for inhibition of LPA-induced calcium mobilization, human Edg-4: clonal HTC cell line, FIG. 11; for EC50: agonist
T1 construct: IC50 Edg-4; other: agonist, calcium mobilization; potency relative to compound 101; calcium response (agonist)
T1 sequence (Q9HBW0 1-340 limits assumed): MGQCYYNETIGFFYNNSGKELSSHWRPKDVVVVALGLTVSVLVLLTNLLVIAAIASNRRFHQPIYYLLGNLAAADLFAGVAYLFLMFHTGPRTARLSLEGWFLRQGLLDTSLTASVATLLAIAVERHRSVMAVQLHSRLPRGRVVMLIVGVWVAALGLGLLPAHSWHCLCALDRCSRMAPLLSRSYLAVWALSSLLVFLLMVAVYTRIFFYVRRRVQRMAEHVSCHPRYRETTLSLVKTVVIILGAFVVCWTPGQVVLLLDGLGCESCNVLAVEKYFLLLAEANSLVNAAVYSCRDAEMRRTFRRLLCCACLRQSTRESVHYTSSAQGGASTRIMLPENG
Source text: (§1) LPA receptors such as Edg-4, couple to calcium effector pathways, and result in increases in intracellular calcium following receptor activation (An et al., Molecular Pharmacology, 54:881-888, 1998, incorporated herein by reference). This biological response lends itself to a very efficient, high-throughput screen using a Fluorescence Imaging Plate Reader (FLIPR; Molecular Devices, Sunnyvale, Calif.). The FLIPR system is a real-time, cell-based assay system with continuous fluorescence detection using a cooled CCD camera. The FLIPR system was used to developing an Edg-4 receptor screen. Rat hepatoma cells stably expressing Edg-4 receptor were plated on 384-well plates and loaded with a calcium dye loading kit (Molecular Devices, Sunnyvale, Calif.) for 1 hour at room temperature. Cells were then placed on the FLIPR^354 (Molecular Devices, Sunnyvale, Calif.) and excited by an argon laser at 488 nm. The data for the entire 384-well plate was updated every second. An integrated robotic pipettor allowed for simultaneous compound addition into each individual well in the plate.

[2] = target: T2, mouse Edg-4 receptor (Mus musculus, UniProt Q9JL06); experiment: LPA induced calcium mobilization, HTC cells transfected with pooled mouse Edg-4 clones; conditions: pooled HTC population, FIG. 13
T2 construct: expressed in transfected cells; host or cells: HTC rat hepatoma cells, pooled population
T2 sequence (Q9JL06 whole entry): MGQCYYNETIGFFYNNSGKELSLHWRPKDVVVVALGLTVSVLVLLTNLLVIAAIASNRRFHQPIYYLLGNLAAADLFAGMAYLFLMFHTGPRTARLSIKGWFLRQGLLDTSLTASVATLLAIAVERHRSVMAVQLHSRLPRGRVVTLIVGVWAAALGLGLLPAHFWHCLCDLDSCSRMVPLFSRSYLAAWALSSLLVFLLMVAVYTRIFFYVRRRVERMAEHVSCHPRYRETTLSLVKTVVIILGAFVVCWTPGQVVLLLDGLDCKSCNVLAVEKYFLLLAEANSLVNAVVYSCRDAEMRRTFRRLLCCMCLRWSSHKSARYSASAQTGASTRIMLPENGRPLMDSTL
Source text: as §1

[3] = system: rat Edg-4 receptor; experiment: LPA induced calcium mobilization, HTC cells transfected with pooled rat Edg-4 clones; conditions: pooled HTC population, FIG. 12
Source text: as §1

[4] = system: human Edg-4 receptor; experiment: Calcium mobilization assay (FLIPR), HTC rat hepatoma cells transfected with human Edg-4; conditions: Edg-4 relative to other Edg receptors; for Fold Selectivity for Edg-4 (EC50): agonists
Source text: as §1

[5] = target: T3, Edg-2 (Homo sapiens, UniProt Q92633); experiment: Calcium mobilization assay (FLIPR), HTC cells expressing Edg 2; conditions: for EC50: agonist
T3 construct: expressed in transfected cells; host or cells: HTC rat hepatoma cells (from the earlier reading)
T3 sequence (Q92633 whole entry): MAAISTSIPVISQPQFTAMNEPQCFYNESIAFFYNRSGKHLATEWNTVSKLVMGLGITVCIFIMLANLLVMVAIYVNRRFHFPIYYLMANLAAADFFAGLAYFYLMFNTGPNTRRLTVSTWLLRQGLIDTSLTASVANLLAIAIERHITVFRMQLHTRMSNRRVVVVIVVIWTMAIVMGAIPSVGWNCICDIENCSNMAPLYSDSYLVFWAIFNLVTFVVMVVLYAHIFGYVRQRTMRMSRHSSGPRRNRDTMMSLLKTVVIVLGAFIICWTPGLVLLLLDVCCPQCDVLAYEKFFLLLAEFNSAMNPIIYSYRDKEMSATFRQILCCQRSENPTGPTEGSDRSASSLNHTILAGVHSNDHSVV

[6] = target: T4, Edg-5 (Homo sapiens, UniProt O95136); experiment: Calcium mobilization assay (FLIPR), HTC cells expressing Edg 5; conditions: for EC50: agonist
T4 construct: expressed in transfected cells; host or cells: HTC rat hepatoma cells (from the earlier reading)
T4 sequence (O95136 whole entry): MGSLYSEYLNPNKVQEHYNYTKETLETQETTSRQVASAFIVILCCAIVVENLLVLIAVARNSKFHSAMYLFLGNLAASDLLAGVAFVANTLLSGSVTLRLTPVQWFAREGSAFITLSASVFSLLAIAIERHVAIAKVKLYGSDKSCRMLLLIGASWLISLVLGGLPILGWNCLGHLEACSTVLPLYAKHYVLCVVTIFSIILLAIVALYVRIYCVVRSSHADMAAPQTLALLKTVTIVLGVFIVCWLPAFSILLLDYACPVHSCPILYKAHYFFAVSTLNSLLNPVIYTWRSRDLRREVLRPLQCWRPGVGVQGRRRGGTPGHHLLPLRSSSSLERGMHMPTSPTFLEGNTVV

[7] = target: T5, Edg-7 (Homo sapiens, UniProt Q9UBY5); experiment: Calcium mobilization assay (FLIPR), HTC cells expressing Edg 7; conditions: calcium mobilization; for EC50: agonist
T5 construct: expressed in transfected cells; host or cells: HTC rat hepatoma cells (from the earlier reading)
T5 sequence (Q9UBY5 1-353): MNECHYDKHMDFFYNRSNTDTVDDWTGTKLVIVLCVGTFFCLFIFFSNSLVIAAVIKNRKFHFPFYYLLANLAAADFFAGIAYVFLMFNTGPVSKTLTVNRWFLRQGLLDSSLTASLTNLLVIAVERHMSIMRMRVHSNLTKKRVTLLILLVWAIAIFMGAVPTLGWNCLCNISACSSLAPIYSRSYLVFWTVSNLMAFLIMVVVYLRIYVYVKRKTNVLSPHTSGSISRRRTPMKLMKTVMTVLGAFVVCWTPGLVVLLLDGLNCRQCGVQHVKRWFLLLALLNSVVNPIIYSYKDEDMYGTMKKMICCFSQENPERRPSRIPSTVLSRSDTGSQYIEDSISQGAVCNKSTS

[8] = target: T6, Edg-8 (Homo sapiens, UniProt Q9H228); experiment: Calcium mobilization assay (FLIPR), HTC cells expressing Edg 8; conditions: for EC50: agonist
T6 construct: expressed in transfected cells; host or cells: HTC rat hepatoma cells (from the earlier reading)
T6 sequence (Q9H228 whole entry): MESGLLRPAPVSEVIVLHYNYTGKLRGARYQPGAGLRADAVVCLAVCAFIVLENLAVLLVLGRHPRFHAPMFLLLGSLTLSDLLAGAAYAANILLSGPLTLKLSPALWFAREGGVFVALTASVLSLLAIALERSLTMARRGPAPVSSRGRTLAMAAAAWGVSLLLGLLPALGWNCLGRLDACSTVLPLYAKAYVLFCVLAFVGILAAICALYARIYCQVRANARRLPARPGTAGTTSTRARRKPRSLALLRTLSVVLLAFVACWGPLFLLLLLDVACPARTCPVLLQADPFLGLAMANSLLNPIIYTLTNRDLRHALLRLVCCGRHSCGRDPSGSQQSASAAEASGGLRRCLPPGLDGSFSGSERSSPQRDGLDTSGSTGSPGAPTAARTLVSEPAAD

[9] = target: T7, Edg-3 (Homo sapiens, UniProt Q99500); experiment: Calcium mobilization assay (FLIPR), HTC cells expressing Edg 3; conditions: for EC50: agonist
T7 construct: expressed in transfected cells; host or cells: HTC rat hepatoma cells (from the earlier reading)
T7 sequence (Q99500 whole entry): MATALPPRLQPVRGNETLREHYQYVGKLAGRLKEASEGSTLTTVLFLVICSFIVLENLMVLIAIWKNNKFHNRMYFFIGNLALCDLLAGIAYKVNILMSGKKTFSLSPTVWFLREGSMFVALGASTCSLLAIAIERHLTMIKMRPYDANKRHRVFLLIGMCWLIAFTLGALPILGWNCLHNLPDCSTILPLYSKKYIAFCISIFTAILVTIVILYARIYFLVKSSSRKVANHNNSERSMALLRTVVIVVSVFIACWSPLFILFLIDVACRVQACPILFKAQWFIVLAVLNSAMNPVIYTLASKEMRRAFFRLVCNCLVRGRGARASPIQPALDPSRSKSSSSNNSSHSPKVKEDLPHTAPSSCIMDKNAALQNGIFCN

[10] = target: T8, Edg-1 (Homo sapiens, UniProt P21453); experiment: Calcium mobilization assay (FLIPR), HTC cells expressing Edg 1; conditions: for EC50: agonist
T8 construct: expressed in transfected cells; host or cells: HTC rat hepatoma cells (from the earlier reading)
T8 sequence (P21453 whole entry): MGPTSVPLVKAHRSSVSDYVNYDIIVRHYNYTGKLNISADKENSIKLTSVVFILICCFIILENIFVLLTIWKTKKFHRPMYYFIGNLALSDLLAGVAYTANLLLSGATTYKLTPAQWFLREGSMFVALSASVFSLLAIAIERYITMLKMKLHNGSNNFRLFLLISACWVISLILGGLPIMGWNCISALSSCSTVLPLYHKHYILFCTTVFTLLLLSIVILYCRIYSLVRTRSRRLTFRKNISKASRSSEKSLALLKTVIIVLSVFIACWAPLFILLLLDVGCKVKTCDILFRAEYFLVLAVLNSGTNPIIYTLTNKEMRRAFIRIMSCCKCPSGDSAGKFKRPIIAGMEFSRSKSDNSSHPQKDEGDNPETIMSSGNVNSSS

[11] = target: T9, Edg-6 (Homo sapiens, UniProt O95977); experiment: Calcium mobilization assay (FLIPR), HTC cells expressing Edg 6; conditions: for EC50: agonist
T9 construct: expressed in transfected cells; host or cells: HTC rat hepatoma cells (from the earlier reading)
T9 sequence (O95977 1-384): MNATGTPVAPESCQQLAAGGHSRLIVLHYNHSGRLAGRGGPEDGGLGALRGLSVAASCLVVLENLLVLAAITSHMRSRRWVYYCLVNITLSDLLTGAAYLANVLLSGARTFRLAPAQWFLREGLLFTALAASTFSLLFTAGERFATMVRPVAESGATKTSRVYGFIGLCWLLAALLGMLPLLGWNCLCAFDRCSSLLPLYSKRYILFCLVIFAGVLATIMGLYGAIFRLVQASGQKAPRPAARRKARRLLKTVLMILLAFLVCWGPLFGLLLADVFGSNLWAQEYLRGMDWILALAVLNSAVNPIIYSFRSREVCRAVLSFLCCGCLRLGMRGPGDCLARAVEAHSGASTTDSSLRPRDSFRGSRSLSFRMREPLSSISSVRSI

[12] = Calcium mobilization assay, Null; conditions: agonist
Source text: as §1

[13] = system: CaOV3 human ovarian cancer cells; experiment: Migration assay, LPA stimulated chemotaxis; conditions: CaOV3, FIG. 9
Protocol: Cells were plated in a 24 well format using Fluoroblok filter insert plates ([…]) or Fluoroblok matrigel coated filter insert plates (Becton Dickinson, San Diego, Calif.). The assay was a modified Boyden Chamber assay in which a cell suspension (1 ×10^5 cells/ml) was prepared in serum free medium and added to the top chamber. LPA or SIP (doses ranged from 0.1-10 μM in serum free medium) was added to the bottom chamber. Following a 20-24 hour incubation period, the number of cells migrating or invading into the lower chamber was quantitated by transferring the filter insert into a fresh 24-well plate containing 4 μg/ml calcein AM (Molecular Probes, Sunnyvale, Calif.) in Hank's Balanced Salt Solution and staining for one hour.
Detection was via fluorescent readout at 450 nm excitation/530 nm emission using a fluorimeter. The level of fluorescence correlated with cell number.
For most cells types, no further manipulation was required. For CaOV3 human ovarian cancer cells, however, it was necessary that the cells be serum starved overnight prior to preparing the cell suspension. In addition, the filter inserts were coated with a solution of 1 mg/ml rat-tail Collagen I (BD, SanDiego, Calif.).

Row | inhibition of LPA-induced calcium mobilization, human Edg-4 [1] | inhibition of LPA-induced calcium mobilization, mouse Edg-4 [2] | EC50 [12] [µM] | EC50 ([1]; calcium mobilization) [µM] | Fold Selectivity for Edg-4 (EC50) [4] | EC50 [5] [µM] | EC50 [6] [µM] | EC50 [7] [µM] | EC50 [8] [µM] | EC50 [9] [µM] | EC50 [10] [µM] | EC50 [11] [µM] | Compound | inhibition of LPA-induced calcium mobilization, rat Edg-4 [3] | further results
1 | dose dependent inhibition | dose dependent inhibition |  |  |  |  |  |  |  |  |  |  | COc1cccc(-c2cc(NC(=O)CC(=O)C(F)(F)F)[nH]n2)c1 [Compound 113, 4,4,4-trifluoro-N-[5-(3-methoxy-phenyl)-2H-pyrazol-3-yl]-3-oxo-butyramide] | dose dependent inhibition | 
2 |  |  |  |  |  |  |  |  |  |  |  |  | O=C1NN=C(c2ccccc2)C(c2c[nH]c3ccccc23)N1 (centres unmarked) [Compound 121, 5-(1H-Indol-3-yl)-6-phenyl-4,5-dihydro-2H-[1,2,4]triazin-3-one] |  | IC50 ([1]; inhibition, calcium mobilization): 3.6 µM; Fold-selectivity for Edg-4 (IC50) ([4]; antagonists): >5.6; IC50 ([5]; inhibition): > 20 µM; IC50 ([6]; inhibition): > 20 µM; IC50 ([7]; inhibition): > 20 µM; IC50 ([8]; inhibition): > 20 µM; IC50 ([9]; inhibition): > 20 µM; IC50 ([10]; inhibition): > 20 µM; IC50 ([11]; inhibition): > 20 µM
3 |  |  | > 25 | 5.4 | >4.6 | > 25 | > 25 | > 25 | > 25 | > 25 | > 25 | > 25 | FC(F)(F)c1ccc2nnc(-c3cccc(Cl)c3Cl)n2c1 [Compound 129, 3-(2,3-dichlorophenyl)-6-trifluoromethyl[1,2,4]triazolo[4,3-a]pyridine] |  | 
4 |  |  | > 25 | 9.9 | >2.5 | > 25 | > 25 | > 25 | > 25 | > 25 | > 25 | > 25 | FC(F)(F)c1ccc2nnc(-c3c(Cl)cccc3Cl)n2c1 [Compound 131, 3-(2,6-dichlorophenyl)-6-trifluoromethyl-[1,2,4]triazolo [4,3-a]pyridine] |  | 
5 | dose dependent inhibition | dose dependent inhibition |  |  |  |  |  |  |  |  |  |  | N-[5-(3,4-dichloro-phenyl)-2H-pyrazol-3-yl]4,4,4-trifluoro-3-oxo-butyramide [Compound 103] | dose dependent inhibition | inhibition of calcium response elicited by agonist 125 ([1]; HTC cells transfected with human Edg-4, FIG. 15): inhibited; potency relative to compound 101 ([1]; dose response curve, FIG. 2): 2-3 fold; inhibition of LPA stimulated chemotaxis [13]: effectively blocked; also recorded: did inhibit
